Here are results for ten compounds from ChEMBL document CHEMBL1201862, “PubChem BioAssay data set” (2004).

One assay relates to H4. Kind of assay: Luminescence Cell-Based Dose Response HTS to Identify Activators of 5'UTR Stem-Loop Driven Prion Protein mRNA Translation in H4 Neuroglioblastoma Cells. [Related pubchem assays: 1829 (Project Summary), 1814 (Primary HTS)]. To be noted: Homo sapiens. The format is functional.
Assay [1] in a line: Luminescence Cell-Based Dose Confirmation HTS to Identify Activators of 5'UTR Stem-Loop Driven Alpha-Synuclein mRNA Translation in H4 Neuroglioblastoma Cells. [Related pubchem assays: 1829 (Project Summary), 1814 (Primary HTS)]. It counts as functional.
Assay [2] is described as follows: Luminescence Cell-Based Dose Response HTS to Identify Activators of Luciferase Translation or Activity in H4 […] Cells. [Related pubchem assays: 1829 (Project Summary), 1814 (Primary HTS)]. It counts as functional.
Assay [3] has as its target E3 ubiquitin-protein ligase Mdm2/Protein Mdm4 (Homo sapiens, UniProt O15151+Q00987). Kind of assay: Mdm2-MdmX interaction inhibitors, dose response, luminescence detection (AID 504593). The format is functional.
Assay [4] deals with T1, Short transient receptor potential channel 4 (Mus musculus, UniProt Q9QUQ5).
T1 sequence (Q9QUQ5 whole entry): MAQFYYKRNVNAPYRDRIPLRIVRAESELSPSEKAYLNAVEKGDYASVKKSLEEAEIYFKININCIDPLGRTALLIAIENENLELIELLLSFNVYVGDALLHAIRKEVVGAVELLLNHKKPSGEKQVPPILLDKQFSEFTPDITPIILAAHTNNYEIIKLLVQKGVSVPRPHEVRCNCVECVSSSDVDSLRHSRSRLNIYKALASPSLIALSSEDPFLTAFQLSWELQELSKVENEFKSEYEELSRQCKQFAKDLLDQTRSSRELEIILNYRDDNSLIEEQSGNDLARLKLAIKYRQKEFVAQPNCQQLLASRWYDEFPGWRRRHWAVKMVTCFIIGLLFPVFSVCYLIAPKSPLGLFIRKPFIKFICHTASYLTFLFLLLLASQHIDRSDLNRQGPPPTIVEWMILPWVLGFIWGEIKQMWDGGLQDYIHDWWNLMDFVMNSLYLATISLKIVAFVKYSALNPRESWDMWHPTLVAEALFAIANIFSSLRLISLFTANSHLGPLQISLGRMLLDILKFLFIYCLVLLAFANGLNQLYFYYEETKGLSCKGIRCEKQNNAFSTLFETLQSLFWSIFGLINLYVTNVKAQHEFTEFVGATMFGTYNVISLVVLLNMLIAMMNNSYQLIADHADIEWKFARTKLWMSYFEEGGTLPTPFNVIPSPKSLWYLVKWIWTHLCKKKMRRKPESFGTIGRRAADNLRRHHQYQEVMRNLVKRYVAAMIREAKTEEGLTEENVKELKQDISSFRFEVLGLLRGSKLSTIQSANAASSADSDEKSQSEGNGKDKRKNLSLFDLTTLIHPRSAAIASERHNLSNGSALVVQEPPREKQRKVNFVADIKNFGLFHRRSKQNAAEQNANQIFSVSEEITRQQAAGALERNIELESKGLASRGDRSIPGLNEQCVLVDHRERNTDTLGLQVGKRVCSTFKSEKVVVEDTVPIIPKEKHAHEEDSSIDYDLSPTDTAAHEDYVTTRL
Kind of assay: TRPC4 positive allosteric modulators, dose response, cell-based, HEK293 TRPC4/mu-opioid, Fluo-4 calcium, EC20 DAMGO (AID 434941).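 Also: HEK293 cells coexpressing TRPC4 and mu opioid receptor stimulated by EC20 DAMGO.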 The format is functional.

The target of the next assay is Troponin, cardiac muscle (Homo sapiens, UniProt P19429+P45379+P63316). Description: Fluorescence-based biochemical high throughput dose response assay for activators of the calcium sensitivity of cardiac Regulated Thin Filaments (RTF). [Related pubchem assays (depositor defined):AID493008, AID493018, AID504382, AID504383]. The format is protein-complex assay.
In assay [5] the test system is BJ. Kind of assay: cells. The format is functional, cell-based. To be noted: Homo sapiens.
The test system of assay [6] is BJ. Description: cytotoxicity toward BJ-TERT-LT-ST fibroblasts, dose response, cell-based, RAS-independent, luminescence (AID 1935).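 Also: BJ fibroblasts immortalized with TERT plus LT and ST oncogenes.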 The format is functional. To be noted: Homo sapiens.
Assay [7] in a line: THP-1 cell cytotoxicity, dose response, cytotoxicity control for non-replicating M. tuberculosis project (AID 489025). It counts as functional.
Assay [8] has as its system BJ. Kind of assay: cytotoxicity toward BJ-TERT fibroblasts, dose response, cell-based, RAS-independent, luminescence (AID 1933). The note with it: Homo sapiens. It counts as functional.
The nature of another assay: cells. The format is functional.
A short description of assay [9]: Vero E6 cell cytotoxicity, dose response, cytotoxicity control for non-replicating M. tuberculosis project, secondary assay (AID 492998). The format is functional, VeroE6. To be noted: Vero C1008.
The nature of assay [10]: cytotoxicity toward DRD oncogenic fibroblasts, dose response, cell-based, non-viral oncogenic, luminescence (AID 1934). The format is functional. To be noted: Homo sapiens.
The target in another assay is Ion channel NompC (Danio rerio, UniProt Q7T1G6). Kind of assay: Dose response cell-based high-throughput screening assay for agonists of the transient receptor potential channel N1 (TRPN1). [Related pubchem assays (depositor defined):AID1424, AID1448]. It counts as functional.
In the next assay the target is Mucolipin-3 (Homo sapiens, UniProt Q8TDD5). Kind of assay: Fluorescence counterscreen assay for […] agonists: dose response cell-based high-throughput screening assay to identify agonists of the transient receptor potential channel ML3 (TRPML3). [Related pubchem assays: 1424, 1448 ]. The format is functional.
Assay [11] deals with T2, Endoribonuclease toxin MazF (Escherichia coli K-12, UniProt P0AE70).
T2 sequence (P0AE70 whole entry): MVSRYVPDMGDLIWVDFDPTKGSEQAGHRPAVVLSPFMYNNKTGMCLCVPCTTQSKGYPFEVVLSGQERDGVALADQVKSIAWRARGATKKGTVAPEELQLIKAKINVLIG
Description: MazF toxin RNase activators, dose response, biochemical, fluorescence, single-stranded RNA substrate, uHTS hits (AID 588481). The format is functional.

The target in assay [12] is Guanyl-specific ribonuclease T1 (Aspergillus oryzae (strain ATCC 42149 / RIB 40), UniProt P00651). Description: RNase T1 inhibitors, dose response, counter-screen for TPT1 inhibitor project, biochemical, fluorescence polarization, 1536-well (AID 2167).
In assay [13] the target is Likely tRNA 2'-phosphotransferase (Candida albicans (strain SC5314 / ATCC MYA-2876) (Yeast), UniProt Q5A7N4). Kind of assay: TPT1 tRNA phosphotransferase inhibitors, dose response, biochemical, fluorescence polarization (AID 2160). Background: In fluorescence polarisation assays a small probe gives low polarisation when free and higher when bound to something large.
Assay [14] concerns the target T2, Endoribonuclease toxin MazF. Kind of assay: fluorescent RNA oligo signal without MazF, dose response, counter-screen for MazEF activator project, biochemical, fluorescence, single-stranded RNase substrate (AID 588502). The format is functional. In general terms: A counterscreen serves to expose hits that act by an unwanted route or on another target.
Assay [15] deals with Delta-type opioid receptor (Homo sapiens, UniProt P41143). Kind of assay: SAR Analysis of Antagonists of the DOR Receptor using an Image-Based Assay - Set 3. [Related pubchem assays (depositor defined):AID1777, AID1785]. The format is functional.
Assay [16] concerns the target T3, Kappa-type opioid receptor (Homo sapiens, UniProt P41145). Description: SAR analysis of small molecule antagonists of the kappa opioid receptor via a luminescent beta-arrestin assay - Set 6. [Related pubchem assays (depositor defined):AID1777, AID1778, AID1785, AID1786, AID1966, AID2133, AID2136, AID2285]. The format is functional.
In assay [17] the target is T3, Kappa-type opioid receptor. Kind of assay: SAR analysis of small molecule antagonists of the kappa opioid receptor via a luminescent beta-arrestin assay - Set 3. [Related pubchem assays (depositor defined):AID1777, AID1778, AID1785, AID1786, AID1966, AID2133, AID2136, AID2285, AID2495]. It counts as functional.
For a further assay, the target named is Mu-type opioid receptor (Homo sapiens, UniProt P35372). Kind of assay: SAR Analysis of Antagonists of the MOR Receptor using an Image-Based Assay - Set 3. [Related pubchem assays (depositor defined):AID1777, AID1785, AID1786, AID1966, AID2133, AID2136, AID2284, AID2285, AID2420]. It counts as functional.
Assay [18] deals with T3, Kappa-type opioid receptor. Kind of assay: SAR analysis of Antagonists of the Kappa Opioid Receptor (KOR) using an Image-Based Assay - Set 3. [Related pubchem assays (depositor defined):AID1777, AID1785]. The format is functional.
In assay [19] the target is T3, Kappa-type opioid receptor. Kind of assay: SAR analysis of Antagonists of the Kappa Opioid Receptor (KOR) using an Image-Based Assay - Set 4. [Related pubchem assays (depositor defined):AID1777, AID1785]. The format is functional.
The target in another assay is Integrin alpha-4 (Homo sapiens, UniProt P13612). Description: VLA-4 integrin allosteric ligands, SAR follow-up, cell-based, LIBS antibody binding, flow cytometry (AID 488791). The format is functional. For orientation: In flow cytometry, cells or beads pass a laser one at a time.
The target of the next assay is Hexokinase (Trypanosoma brucei, UniProt Q38C41). Description: Confirmation assay for inhibitors of Trypanosoma brucei hexokinase 1-Analogue-first series. [Related pubchem assays (depositor defined):AID1430, AID1632, AID2516, AID2560, AID2579, AID2600, AID449725, AID492951]. The format is functional.
The target of assay [20] is Intestinal-type alkaline phosphatase (Homo sapiens, UniProt P09923). Description: human intestinal alkaline phosphatase activators, dose response, biochemical, luminescence, uHTS hits (AID 463120). It counts as functional.
In assay [21] the target is Glyceraldehyde-3-phosphate dehydrogenase (Homo sapiens, UniProt P04406).
In assay [22] the target is T4, Alkaline phosphatase, tissue-nonspecific isozyme (Homo sapiens, UniProt P05186).
T4 sequence (P05186 whole entry): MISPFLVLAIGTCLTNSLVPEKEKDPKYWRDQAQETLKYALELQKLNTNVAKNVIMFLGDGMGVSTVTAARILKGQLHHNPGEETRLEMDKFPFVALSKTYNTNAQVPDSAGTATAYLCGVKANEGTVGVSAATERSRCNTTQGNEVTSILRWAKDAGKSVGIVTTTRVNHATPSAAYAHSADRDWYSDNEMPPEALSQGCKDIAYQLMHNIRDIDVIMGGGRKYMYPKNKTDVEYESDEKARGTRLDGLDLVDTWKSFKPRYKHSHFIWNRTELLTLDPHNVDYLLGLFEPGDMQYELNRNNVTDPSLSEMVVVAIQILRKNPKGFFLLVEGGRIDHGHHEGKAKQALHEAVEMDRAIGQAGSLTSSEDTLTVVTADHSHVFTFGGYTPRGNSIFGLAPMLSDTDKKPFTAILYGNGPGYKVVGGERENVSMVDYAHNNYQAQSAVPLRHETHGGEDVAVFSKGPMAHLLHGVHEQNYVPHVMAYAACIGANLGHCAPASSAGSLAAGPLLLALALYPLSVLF
Description: human TNAP enzyme inhibitors, SAR follow-up, biochemical, luminescent, dose response (AID 1056).

Assay [23] concerns the target Alkaline phosphatase, placental type (Homo sapiens, UniProt P05187). Description: PLAP enzyme inhibitors, confirmation, biochemical, luminescence (AID 1512). It counts as functional.

The source made the active and inactive calls. A value given as a limit tells only on which side of the number the result lay.

What is called EC50 is the concentration needed to bring the measured effect to its halfway point. The IC50 is the midpoint of a concentration-inhibition curve. The term CC50 denotes the concentration at which the toxic effect on the cells reaches its halfway point.

T3 sequence (P41145 whole entry): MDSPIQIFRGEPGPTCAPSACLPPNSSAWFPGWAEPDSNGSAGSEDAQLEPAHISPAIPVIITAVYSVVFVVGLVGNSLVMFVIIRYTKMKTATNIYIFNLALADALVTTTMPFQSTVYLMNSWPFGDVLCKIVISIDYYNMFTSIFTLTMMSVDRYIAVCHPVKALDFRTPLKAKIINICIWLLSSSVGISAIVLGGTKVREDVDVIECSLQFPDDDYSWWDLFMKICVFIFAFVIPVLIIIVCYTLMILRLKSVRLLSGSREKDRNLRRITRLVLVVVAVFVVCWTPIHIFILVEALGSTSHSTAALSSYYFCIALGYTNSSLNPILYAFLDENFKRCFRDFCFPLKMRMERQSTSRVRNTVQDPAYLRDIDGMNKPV
Chain of Likely tRNA 2'-phosphotransferase (Q5A7N4 whole entry): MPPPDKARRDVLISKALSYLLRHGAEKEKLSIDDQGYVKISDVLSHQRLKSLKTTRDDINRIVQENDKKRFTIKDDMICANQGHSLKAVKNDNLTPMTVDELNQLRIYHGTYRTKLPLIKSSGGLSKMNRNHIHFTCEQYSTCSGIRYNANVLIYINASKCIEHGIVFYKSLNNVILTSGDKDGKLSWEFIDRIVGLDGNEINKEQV
Chain of Hexokinase (Q38C41 whole entry): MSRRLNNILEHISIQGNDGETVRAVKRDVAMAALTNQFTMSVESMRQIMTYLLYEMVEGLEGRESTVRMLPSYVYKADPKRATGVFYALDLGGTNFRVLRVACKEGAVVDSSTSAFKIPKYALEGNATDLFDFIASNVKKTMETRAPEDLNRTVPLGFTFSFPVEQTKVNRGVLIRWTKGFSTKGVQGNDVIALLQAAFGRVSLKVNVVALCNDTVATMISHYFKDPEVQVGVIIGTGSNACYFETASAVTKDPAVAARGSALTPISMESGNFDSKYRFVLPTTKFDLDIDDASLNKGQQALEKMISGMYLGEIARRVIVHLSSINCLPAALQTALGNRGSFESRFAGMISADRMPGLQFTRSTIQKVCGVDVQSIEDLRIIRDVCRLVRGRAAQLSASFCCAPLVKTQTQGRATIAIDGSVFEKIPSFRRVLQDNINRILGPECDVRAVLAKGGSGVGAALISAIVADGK
Chain of Ion channel NompC (Q7T1G6 whole entry): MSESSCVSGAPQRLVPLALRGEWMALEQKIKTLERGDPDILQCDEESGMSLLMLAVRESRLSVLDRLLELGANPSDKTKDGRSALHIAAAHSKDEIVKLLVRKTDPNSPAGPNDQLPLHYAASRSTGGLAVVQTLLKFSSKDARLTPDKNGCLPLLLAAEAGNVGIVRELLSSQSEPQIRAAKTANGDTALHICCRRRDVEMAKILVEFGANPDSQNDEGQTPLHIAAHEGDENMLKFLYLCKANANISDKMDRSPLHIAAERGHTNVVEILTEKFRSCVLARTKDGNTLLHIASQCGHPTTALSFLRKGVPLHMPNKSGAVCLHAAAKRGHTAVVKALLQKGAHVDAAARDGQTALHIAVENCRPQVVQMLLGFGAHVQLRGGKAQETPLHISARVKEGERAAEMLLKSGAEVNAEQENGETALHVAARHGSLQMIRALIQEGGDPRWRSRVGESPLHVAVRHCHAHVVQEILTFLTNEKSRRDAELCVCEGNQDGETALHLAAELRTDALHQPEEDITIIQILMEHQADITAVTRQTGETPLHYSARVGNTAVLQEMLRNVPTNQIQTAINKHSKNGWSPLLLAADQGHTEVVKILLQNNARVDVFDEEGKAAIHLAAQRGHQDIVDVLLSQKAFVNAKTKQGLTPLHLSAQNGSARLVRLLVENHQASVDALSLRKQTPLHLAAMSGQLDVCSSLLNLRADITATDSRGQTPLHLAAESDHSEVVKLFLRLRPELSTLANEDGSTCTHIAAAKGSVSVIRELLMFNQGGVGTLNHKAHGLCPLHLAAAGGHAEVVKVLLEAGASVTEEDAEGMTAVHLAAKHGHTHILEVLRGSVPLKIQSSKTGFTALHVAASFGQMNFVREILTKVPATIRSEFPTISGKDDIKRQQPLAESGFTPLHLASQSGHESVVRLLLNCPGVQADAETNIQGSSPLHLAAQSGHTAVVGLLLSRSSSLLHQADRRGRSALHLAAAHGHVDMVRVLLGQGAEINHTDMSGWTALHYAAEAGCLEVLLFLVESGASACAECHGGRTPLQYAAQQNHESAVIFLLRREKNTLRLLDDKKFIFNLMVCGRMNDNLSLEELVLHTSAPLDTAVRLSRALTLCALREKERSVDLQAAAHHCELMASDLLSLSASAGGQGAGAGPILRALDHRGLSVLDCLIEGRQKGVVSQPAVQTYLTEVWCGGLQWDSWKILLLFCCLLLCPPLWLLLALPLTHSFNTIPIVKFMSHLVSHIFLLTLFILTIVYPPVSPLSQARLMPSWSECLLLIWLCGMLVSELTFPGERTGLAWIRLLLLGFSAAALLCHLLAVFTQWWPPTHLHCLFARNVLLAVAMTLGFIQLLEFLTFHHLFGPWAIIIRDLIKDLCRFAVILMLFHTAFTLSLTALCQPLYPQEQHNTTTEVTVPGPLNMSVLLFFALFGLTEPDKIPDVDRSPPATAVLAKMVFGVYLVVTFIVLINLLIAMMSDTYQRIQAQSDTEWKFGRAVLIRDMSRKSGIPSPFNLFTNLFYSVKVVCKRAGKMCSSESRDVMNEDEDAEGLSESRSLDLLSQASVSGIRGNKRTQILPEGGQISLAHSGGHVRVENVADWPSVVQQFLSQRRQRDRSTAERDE
Chain of Guanyl-specific ribonuclease T1 (P00651 whole entry): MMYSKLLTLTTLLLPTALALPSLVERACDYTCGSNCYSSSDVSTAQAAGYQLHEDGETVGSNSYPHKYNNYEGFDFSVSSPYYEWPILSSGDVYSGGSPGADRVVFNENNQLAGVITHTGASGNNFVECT
Chain of Mu-type opioid receptor (P35372 whole entry): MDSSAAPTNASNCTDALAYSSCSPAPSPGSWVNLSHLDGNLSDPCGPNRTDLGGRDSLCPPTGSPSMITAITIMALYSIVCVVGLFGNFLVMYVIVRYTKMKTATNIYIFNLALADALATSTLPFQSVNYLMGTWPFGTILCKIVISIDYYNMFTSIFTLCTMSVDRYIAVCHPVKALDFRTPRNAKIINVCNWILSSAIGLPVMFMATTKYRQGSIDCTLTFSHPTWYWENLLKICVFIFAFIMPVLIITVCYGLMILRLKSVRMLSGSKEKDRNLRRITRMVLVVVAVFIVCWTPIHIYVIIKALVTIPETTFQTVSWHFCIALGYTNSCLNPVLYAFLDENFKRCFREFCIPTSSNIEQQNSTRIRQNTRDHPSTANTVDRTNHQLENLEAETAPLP
Chain of E3 ubiquitin-protein ligase Mdm2/Protein Mdm4 (Q00987 whole entry): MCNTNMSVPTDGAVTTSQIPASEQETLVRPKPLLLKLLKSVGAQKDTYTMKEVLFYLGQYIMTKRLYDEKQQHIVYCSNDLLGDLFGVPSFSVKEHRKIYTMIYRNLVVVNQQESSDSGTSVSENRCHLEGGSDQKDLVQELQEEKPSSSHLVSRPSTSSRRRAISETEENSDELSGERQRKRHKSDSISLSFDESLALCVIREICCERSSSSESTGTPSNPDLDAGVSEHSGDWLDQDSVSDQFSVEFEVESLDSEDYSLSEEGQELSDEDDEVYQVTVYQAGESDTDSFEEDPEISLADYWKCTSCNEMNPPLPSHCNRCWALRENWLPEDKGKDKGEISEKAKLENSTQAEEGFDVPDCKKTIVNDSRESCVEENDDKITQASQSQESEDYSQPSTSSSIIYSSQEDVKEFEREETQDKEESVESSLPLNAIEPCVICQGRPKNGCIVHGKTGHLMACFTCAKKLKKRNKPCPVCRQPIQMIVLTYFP
Chain of E3 ubiquitin-protein ligase Mdm2/Protein Mdm4 (O15151 whole entry): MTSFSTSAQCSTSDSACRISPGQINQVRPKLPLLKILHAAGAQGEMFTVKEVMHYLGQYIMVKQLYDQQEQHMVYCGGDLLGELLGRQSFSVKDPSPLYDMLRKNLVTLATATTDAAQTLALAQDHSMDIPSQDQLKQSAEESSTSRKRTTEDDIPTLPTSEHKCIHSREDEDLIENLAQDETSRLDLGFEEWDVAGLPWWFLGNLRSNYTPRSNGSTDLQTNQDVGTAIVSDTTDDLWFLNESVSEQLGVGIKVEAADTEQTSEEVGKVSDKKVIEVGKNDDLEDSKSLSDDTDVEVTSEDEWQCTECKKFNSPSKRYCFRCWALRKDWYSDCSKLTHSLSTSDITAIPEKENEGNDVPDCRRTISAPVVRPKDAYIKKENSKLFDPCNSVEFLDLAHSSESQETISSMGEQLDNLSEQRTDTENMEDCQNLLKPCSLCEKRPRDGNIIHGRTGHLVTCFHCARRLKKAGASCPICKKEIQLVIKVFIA
Chain of Mucolipin-3 (Q8TDD5 whole entry): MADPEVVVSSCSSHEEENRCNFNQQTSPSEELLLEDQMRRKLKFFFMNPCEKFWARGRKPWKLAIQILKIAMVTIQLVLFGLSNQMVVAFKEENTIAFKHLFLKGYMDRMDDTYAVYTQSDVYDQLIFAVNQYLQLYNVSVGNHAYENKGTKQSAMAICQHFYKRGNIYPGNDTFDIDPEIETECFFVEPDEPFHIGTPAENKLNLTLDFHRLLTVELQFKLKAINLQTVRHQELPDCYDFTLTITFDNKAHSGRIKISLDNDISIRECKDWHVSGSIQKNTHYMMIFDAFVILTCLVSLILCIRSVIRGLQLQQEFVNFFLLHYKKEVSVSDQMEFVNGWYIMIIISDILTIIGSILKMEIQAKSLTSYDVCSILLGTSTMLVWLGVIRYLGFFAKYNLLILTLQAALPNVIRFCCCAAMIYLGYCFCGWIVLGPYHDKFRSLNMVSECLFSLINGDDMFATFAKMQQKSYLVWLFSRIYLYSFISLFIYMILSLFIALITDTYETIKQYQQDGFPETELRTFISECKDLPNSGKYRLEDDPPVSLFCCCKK

`CC1(C)C(=O)Nc2ccccc2N1C(=O)Cn1ncc(Cl)c(Cl)c1=O`: the figures for the EC50 (in the assay on H4; in assay [1]; in assay [2]) were > 120 µM (not active), > 60 µM (not active) and > 120 µM (not active), respectively. The IC50 in assay [3] is 5.11 µM (active).

`Cc1cc(-c2ccc(C)c(S(=O)(=O)N3CCN(c4ccccn4)CC3)c2)on1`: the EC50 in assay [4] was 4.22 µM (active).

On to `Cc1ccc(-c2ccc(OC(=O)c3ccc(=O)[nH]c3)c(C)c2)cc1`, for which the EC50 at Troponin, cardiac muscle is > 71.5 µM (inactive).

`COC(=O)c1ccc(C(=O)NC2CCCc3c2cnn3-c2cc(F)cc(F)c2)nc1` (stereo unspecified): the EC50 is 24.6 µM (active) with BJ [5], 17.3 µM (active) in the assay with BJ [6], 17.1 µM (active) with BJ [8] and 40 µM (active) in assay [10]. Besides, the results for the CC50 in assay [7] and in assay [9] were 10.7 µM (active) and 10.8 µM (active), respectively. Besides, in “cells”, the IC50 is 2.22 µM (active).

As to `CC(=O)N1C(=O)C(=C2C=C(C)OC(C)=C2)c2ccccc21`, the EC50 on Ion channel NompC is 22 µM (inactive); at Mucolipin-3 it was > 29.9 µM (not active); in assay [11], > 99 µM (inactive); in assay [14], > 99 µM (inactive). Also, the IC50 in assay [12] was 2.13 µM (active); in [13], > 2.06 µM (active).

On to `O=C(Cn1c(=O)c2cccn2c2cccnc21)NCCCN1CCN(c2ccccc2)CC1`, for which the IC50 in assay [15] was > 32 µM (inactive); in assay [16], > 20 µM (inactive); in assay [17], 1.17 µM (active); on Mu-type opioid receptor it was > 32 µM (inactive); in assay [18] it was 12.7 µM (inactive); in assay [19] it was > 32 µM (inactive).

With `c1ccc2c(-c3ccc(OCCN4CCCC4)cc3)c(-c3ccsc3)sc2c1`, at Integrin alpha-4, the EC50 is > 49.4 µM (inactive).

For the compound `CCCCCC(=O)Nc1cc(Cl)ccc1C(=O)O`, the IC50 on Hexokinase is > 25 µM (inactive).

As for `O=C(N/N=C/c1ccc2cccnc2c1)c1nc(O)c2ccccc2n1`, in [20], the EC50 is 7.78 µM (active).

For the compound `NNC(=O)c1cc(-c2ccc(Cl)cc2Cl)n[nH]1`, the figures for the IC50 in assay [21], in [22] and in [23] were > 100 µM (not active), 0.0684 µM (active) and > 100 µM (inactive), respectively.
